Source: patent US20100190849A1, “Novel Clerodanes and Methods for Repelling Arthropods” (priority 2006, published 2010)
Marks after values point to notes of the source that are not given here.

Legend:
Aedes aegypti = assay: K & D module mosquito anti-biting (repellent) bioassay; type: in vivo
Procedure: Insects: Ae. aegypti(L.) (red eye Liverpool strain) and An. stephensi Liston used in the study were from colonies maintained at the Walter Reed Army Institute of Research, Silver Spring, Md. […] Adults were maintained in a photoperiod of 12:12 (L:D) h at 27° C. and 80% RH with cotton pads moistened with 10% aqueous sucrose solution. Mated females were 5-15 d old when they were used in bioassays. Ae. aegypti females had access only to water 24 h and neither food nor water for another 24 h before testing. An. stephensi females were provided with water alone 24 h before testing.
Routinely, a six-celled K & D module containing five mosquitoes/cell was positioned over cloth treatments covering the six blood-membrane wells, and trap doors of the K&D modules were opened to expose the treatments to the sets of mosquitoes. After a 3 minute exposure, the number of mosquitoes biting through cloth treatments in each cell was recorded and mosquitoes were prodded back into the cells. […] Experiments were replicated 12, 18, 32, or 56 times. Thus, 60, 90, 160. or 280 mosquitoes were tested against each treatment depending on the experiment, and the proportion of mosquitoes not biting for each treatment was calculated. For each experiment, conducted in different time periods, logistic regression was used to make two sets of one degree-of-freedom contrasts (t-tests): treatments vs. control and treatments vs. SS220 for anti-biting activity within each experiment. The level of significance was set at P=0.05. In all, we conducted 8 biological experiments, and all experiments used Ae. aegypti as the test mosquito with exception of Experiment 7 which used An. stephensi.
Each experiment was replicated 18 times.
Experiments 3, 4, and 5: In each of these experiments, chromatographic fractions of essential oil at their respective percentage compositions of 100 μg essential oil/cm^2 cloth, 100 μg unfractionated essential oil/cm^2 cloth, 25 nmol SS-220/cm^2 cloth and control were compared for mosquito anti-biting activity. Each experiment was replicated 18 times.
(§1) Experiments 6 and 7: These experiments compared the anti-biting activities of SS-220, and plant-isolated callicarpenal, humulene epoxide II, intermedeol and spathulenol at 25 nmol compound/cm^2 cloth versus control against Ae. aegypti and An. stephensi, respectively. Experiment 6 was replicated 32 times and 7 had 56 replicates
The percentage composition of the mixture was a normalized percentage of active components in C. japonica essential oil based upon GC-MS analysis total ion Area % analysis based on largest peaks. Other treatments in the experiment were SS220, callicarpenal, intermedeol, and spathulenol each at 25 nmol/cm^2 cloth versus control.

Anopheles stephensi = assay: as above; type: in vivo; details: 25 nmol compound/cm^2 cloth; for Proportion Not Biting: Exp. 7, 56 replicates; for repellent activity (in words): Experiment 7
Text: Insects: Ae. aegypti(L.) (red eye Liverpool strain) and An. stephensi Liston used in the study were from colonies maintained at the Walter Reed Army Institute of Research, Silver Spring, Md. The insects were reared by feeding larvae ground tropical fish flakes (Tetramin Tropical Fish Flakes, Tetra Sales, Blacksburg, Va., www.tetra-fish.com)(Gerberg, E. j., et al., Manual for mosquito rearing and experimental techniques. Amer. Mosq. Control Assoc. Bull. No. 5 (revised), 1994, AMCA. inc., Lake Charles, La.). Adults were maintained in a photoperiod of 12:12 (L:D) h at 27° C. and 80% RH with cotton pads moistened with 10% aqueous sucrose solution. Mated females were 5-15 d old when they were used in bioassays. Ae. aegypti females had access only to water 24 h and neither food nor water for another 24 h before testing. An. stephensi females were provided with water alone 24 h before testing.
Mosquito Bioassay Methods: Experiment were conducted by using, a six-celled in vitro Klun & Debboun (K & D) module bioassay system developed by klun et al. (Klum J. A., et al., Journal of the American Mosquito Control Association. 21: 64-70 (2005)) for quantitative, evaluation of mosquito-repellent (anti-biting) properties of candidate repellent compounds for human use.
Plant extracts, fractions, or isolated pure plant derived compounds in 95% ethanol solution were each randomly applied to six-4×5 cm areas of organdy cloth and positioned over the membrane-covered blood. A replicate consisted of six treatments: four test chemicals or extract fractions, 95% ethanol treated cloth as control and unfractionated plant extract or a standard repellent compound, (1S, 2′S)-2-methylpiperidinyl-3-cyclohexen-1-carboxamide (SS220) at 25 nmol/cm^2 cloth. The 25 nmol SS220/cm^2 cloth dose was used as a standard, because it was known from human volunteer and in vitro assays to consistently suppress mosquito biting by 80% or more compared to controls in replicated assays (Klun, J. A., et al., Journal of the American Mosquito Control Association, 21: 64-70 (2005)). […] Routinely, a six-celled K & D module containing five mosquitoes/cell was positioned over cloth treatments covering the six blood-membrane wells, and trap doors of the K&D modules were opened to expose the treatments to the sets of mosquitoes. After a 3 minute exposure, the number of mosquitoes biting through cloth treatments in each cell was recorded and mosquitoes were prodded back into the cells. In Experiment 8, we retained all mosquitoes in their respective K&D module cells, each fitted with a water-moist piece of cotton, and observed the mosquitoes for total mosquito toxic knockdown at 6 min, 1 hr, and 24 hr post-treatment exposure. Experiments were replicated 12, 18, 32, or 56 times. Thus, 60, 90, 160. or 280 mosquitoes were tested against each treatment depending on the experiment, and the proportion of mosquitoes not biting for each treatment was calculated. For each experiment, conducted in different time periods, logistic regression was used to make two sets of one degree-of-freedom contrasts (t-tests): treatments vs. control and treatments vs. SS220 for anti-biting activity within each experiment. The level of significance was set at P=0.05. In all, we conducted 8 biological experiments, and all experiments used Ae. aegypti as the test mosquito with exception of Experiment 7 which used An. stephensi.
as §1

S. richteri = assay: Two-choice digging bioassay, head-to-head against octanoic acid; type: in vivo, Solenopsis richteri; details: 25.00 ppm; both S. richteri colonies; FIGS. 3 and 4
Procedure: (§2) The repellency of the two terpenoids, callicarpenal and intermedeol, against workers of red imported fire ants, Solenopsis invicta Buren, black imported fire ants, Solenopsis rickeri Forel, and a hybrid of these two species was evaluated using multiple-choice digging bioassays (Tables 9 & 10). […] Callicarpenal and intermedeol were compared with octanoic acid, a known fire ant repellant, at the 25.00 ppm level using two-choice digging bioassays (FIGS. 3 and 4).
(§3) Head-to-head comparison on repellency of callicarpenal and intermedeol against octanoic acid: The bioassay apparatus was similar as described above, except a smaller Petri dish (8.7×2.3 cm) was used and only two choices were presented: one was sand treated with callicarpenal or intermedeol and the other with octanoic acid. Two choices were opposite each other across the center of the Petri dish and each was 3.0 cm away from the center. All compounds were tested at a 25.00 ppm level. Sand preparation was similar as described above. Ants from the same colonies as above were used in this experiment. There were five replications for each pair of comparisons. A paired t-test (critical P-value=0.05) was used to compare the mean amount of sand removed between two tubes.

[1] = test system: hybrid (S. invicta×S. richteri); assay: as above; type: in vivo; details: 25.00 ppm
Procedure: as §2, §3

[2] = Exp. 6, 25 nmol compound/cm^2 cloth, 32 replicates
[3] = Exp. 8, 25 nmol/cm^2 cloth, 12 replicates
[4] = Experiment 6, 25 nmol compound/cm^2 cloth
[5] = Experiment 8, 25 nmol/cm^2 cloth

Structure (SMILES) | Proportion Not Biting (Aedes aegypti; [2]) | Proportion Not Biting (Aedes aegypti; [3]) | repellent activity (in words) (Aedes aegypti; [4]) | repellent activity (in words) (Aedes aegypti; [5]) | Proportion Not Biting (Aedes aegypti; Table 7, Example 2, synthetic compounds, dose not given) | Proportion Not Biting (Aedes aegypti; Table 8, Example 3, synthetic compounds, dose not given) | Proportion Not Biting (Anopheles stephensi) | repellent activity (in words) (Anopheles stephensi) | repellency compared with octanoic acid (in words) (S. richteri) | repellency compared with octanoic acid (in words) ([1]; one hybrid colony, FIG. 3) | repellency compared with octanoic acid (in words) ([1]; the other hybrid colony, FIG. 3) | repellency compared with octanoic acid (in words) ([1]; all hybrid colonies, FIG. 4)
CC1=CCC[C@@H]2[C@@](C)(CC=O)[C@H](C)CC[C@@]12C [callicarpenal, 13,14,15,16-tetranorclerod-3-en-12-al] | 0.70^b | 0.73^a | significant activity | high repellent activity that was comparable to SS220 | 0.70^b | 0.73^b | 0.75^c | as effective as SS220 | significantly greater repellency than octanoic acid | significantly greater repellency than octanoic acid | no significant difference | –
C=C(C)C1CCC2(C)CCCC(C)(O)C2C1 [intermedeol, (4S,5S,7R,10S)-eudesm-11-en-4-ol] | 0.70^b | 0.62^c | significant activity | high repellent activity that was comparable to SS220 | – | – | 0.72^c | as effective as SS220 | significantly greater repellency than octanoic acid | – | – | significantly greater repellency than octanoic acid
